In patent US20260262641A1 (priority 2023, published 2026):

What was measured:
[1] = system: ground pearl (Margarodes spp); assay: Field trial in kikuyu turf, control of ground pearl, Robina (Example 6); assay type: in vivo
Experimental: A field trial was conducted in kikuyu turf, to evaluate fenpyroximate for control of ground pearl (Margarodes spp). The trial was located at Robina, Queensland (−28.069442, 153.401817), in an area with a known infestation of ground pearl.
All treatments were applied using a hand boom fitted with XC08 nozzles, in a spray volume of 443 L/ha.
The ground pearl density by species was assessed prior to the first application and again 21 days after the third application by sampling 20 cores per plot and recording the number of eggs and adults. Turf vigor was assessed on a 0 to 10 rating scale (0=dead; 10=best quality/color) prior to the first application and 42 days after the third application.
(§1) All data was statistically analyzed using analysis of variance and Fisher's protected least significant different test (Fishers LSD). The level of significance for all tests was P<0.05.

[2] = system: ground pearl (Margarodes spp); assay: Field trial in kikuyu turf, control of ground pearl, Sydney (Example 2); assay type: in vivo
Experimental: A field trial was conducted in kikuyu turf, to evaluate fenpyroximate for control of ground pearl (Margarodes spp). The trial was located at Sydney University, New South Wales (−33.888, 151.188), in an area with a known infestation of ground pearl.
All treatments were applied using a hand boom fitted with XR11004 nozzles, in a spray volume of 430 L/ha.
The ground pearl density by species was assessed by sampling 20 cores per plot and recording the number of eggs and adults, and Normalized Difference Vegetation Index (NDVI) was assessed 56 days after the third application using a Greenseeker.
as §1

[3] = system: couch mite (Aceria cynodoniensis); assay: Field trial in Santa Ana couch turfgrass, control of couch mite (Example 3); assay type: in vivo
Experimental: A field trial was conducted in Santa Ana couch turfgrass, to evaluate fenpyroximate for control of couch mite (Aceria cynodoniensis). The trial was located at Terrey Hills Golf and Country Club, New South Wales (−33.668, 151.217). […] All treatments were applied using a hand boom fitted with XR11004 nozzles and in a spray volume of 430 L/ha.
The incidence of couch mite damage, to the terminal growth point (known as witches' broom) was assessed 42 days after the second application. Turf biomass and vigor were assessed at the same timing on a 0 to 10 rating scale, along with NDVI using a Greenseeker.
as §1

[4] = system: insecticide-resistant population of redlegged earth mite (H. destructor; RLEM); assay: whole plant or invertebrate; details: Halotydeus destructor, 24 h, read-out: % RLEM mortality, Resistant
Experimental: (§2) The insecticide-susceptible H. destructor population tested in this bioassay was collected from burr medic (Medicago polymorpha) and barley grass (Hordeum leporinum) in Moulamein, NSW (−35.102, 144.026), a site with no known history of insecticide application. […] Mites were collected via suction using a Stihl SH55 blower vacuum, placed in plastic containers with paper towel and vegetation, and transported back to the laboratory, where they were stored at 4° C. until testing.
(§3) Serial dilutions were prepared for each insecticide (Table 9), with the addition of a non-ionic surfactant (Tween 20) at 0.01% to aid the spread of the insecticide and ensure even coating. […] Nine concentrations of bifenthrin were tested, ranging from 1×10^−5 to 10 times the field rate of 40 mL diluted in 100 L of water (100 mg a.i./L). Seven concentrations of omethoate were tested, ranging from 1×10^−5 to 10 times the field rate of 100 mL in 100 L of water (290 mg a.i./L).
(§4) Six vials were coated per concentration and were left to dry overnight. Control vials were treated in the same way, except water (with the addition of 0.01% Tween) was used. The next day, eight individual H. destructor were then placed into each vial along with 2-3 leaves of common vetch (Vicia sativa), which provided food and humidity. Vials were then sealed with a screw lid and placed in a controlled temperature cabinet at 18° C. After 24-hours exposure, mites were scored as alive (moving freely), incapacitated (inhibited movement), or dead (no movement over a 5 second period).
(§5) Dose-response curves were generated by plotting percentage mortality against log concentration. A series of logistic models were used to quantify the sensitivity of H. destructor to each chemical and to test whether any differences in sensitivity were present between the two populations. Logistic regression is well suited for the analysis of binary response data (e.g., dead/alive). Each model included chemical concentration and H. destructor population as fixed-effect predictors, which allowed testing for whether populations had average differences in mortality (i.e., model intercept) via F tests. It was then determined if populations had differences in mortality that were dependent on chemical concentration (i.e., differences in regression slopes) by comparing the inclusion of a population×concentration predictor (i.e., allowing slopes to vary between populations). […] The resulting LC50 values were used to quantify the level of insecticide resistance (resistance ratios) relative to the known insecticide-susceptible population. All analyses were conducted using R version 4.3.1 (R Development Core Team 2023).

[5] = system: insecticide-susceptible population of redlegged earth mite (H. destructor; RLEM); assay: whole plant or invertebrate; details: Halotydeus destructor, 24 h, read-out: % RLEM mortality, Susceptible
Experimental: as §2, §3, §4, §5

[6] = 21 days after third application, product rate mL or g/ha: Meridian 1200, Kohinor 350 SC 1500, Fenpyroximate 50 SC 4000 (200 g ai/ha), each with Stamina B 20000
[7] = Pre-spray (baseline), 20 cores per plot
[8] = versus untreated, P<0.05, with PE 6200

SMILES: Cc1nn(C)c(Oc2ccccc2)c1C=NOCc1ccc(C(=O)OC(C)(C)C)cc1 [Fenpyroximate]
- Ground pearls/plot, Adults, 21 DAA3 [1, 6]: 1.0 ab ground pearls/plot
- Ground pearls/plot, Eggs, 21 DAA3 [1, 6]: 1.0 abc ground pearls/plot
- Turf vigor (0-10), Pre-spray ([1]; Pre-spray (baseline), 0=dead, 10=best quality/color): 5.1
- Ground pearls/plot, Adults, Pre-spray [1, 7]: 6.7 ground pearls/plot
- Ground pearls/plot, Eggs, Pre-spray [1, 7]: 4.0 ground pearls/plot
- density of ground pearl eggs and adults (in words) ([1]; versus untreated, P<0.05): significantly reduced
- turf vigor (in words) ([1]; versus untreated, P<0.05): significantly improved
- NDVI, Pre-spray ([2]; Pre-spray (baseline), kikuyu turf, Greenseeker): 8.0
- Ground pearls/plot, Adults, Pre-spray ([2]; sc): 4.0 a ground pearls/plot
- Ground pearls/plot, Eggs, Pre-spray ([2]; sc): 10.3 a ground pearls/plot
- Ground pearls/plot, Adults, 56 DAA3 ([2]; sc, 200 g/ha, 1344 h): 12.8 a ground pearls/plot
- Ground pearls/plot, Eggs, 56 DAA3 ([2]; sc, 200 g/ha, 1344 h): 5.3 a ground pearls/plot
- NDVI, 56 DAA3 ([2]; sc, 1344 h): 7.6
- turf color and quality / NDVI (in words) ([2]; versus untreated, P<0.05): significantly improved
- density of ground pearl adults (in words) [2, 8]: significantly reduced
- density of ground pearl eggs (in words) [2, 8]: significantly reduced
- Biomass and vigor (0-10), 42 DAA2 ([3]; 42 DAA2, 0 to 10 rating scale, product rate mL/ha: Prophesy 500, Thumper 2000 (+ BS 1000 0.25% v/v), Fenpyroximate 50 SC 4000): 4.8
- NDVI, 42 DAA2 ([3]; 42 DAA2, Greenseeker, product rate mL/ha: Prophesy 500, Thumper 2000 (+ BS 1000 0.25% v/v), Fenpyroximate 50 SC 4000): 0.63
- % Incidence mite damage, 42 DAA2 ([3]; 42 days after second application, product rate mL/ha: Prophesy 500, Thumper 2000 (+ BS 1000 0.25% v/v), Fenpyroximate 50 SC 4000 (200 g ai/ha)): 47.0%
- Biomass and vigor (0-10), Pre-spray ([3]; Pre-spray (baseline), 0 to 10 rating scale): 4.1 a
- NDVI, Pre-spray ([3]; Pre-spray (baseline), Greenseeker): 0.55 a
- % Incidence mite damage, Pre-spray ([3]; Pre-spray (baseline), witches' broom): 95.8 a %
- incidence of couch mite damage (in words) ([3]; versus untreated, P<0.05): significantly reduced
- turf biomass and vigor and NDVI (in words) ([3]; versus untreated, P<0.05): significantly improved
- mortality at 0.1 µg/mL [4]: 4.6%
- mortality at 10 µg/mL [4]: 11.2%
- mortality at 100 µg/mL [4]: 45.7%
- mortality at 300 µg/mL [4]: 86.3%
- mortality at 1000 µg/mL [4]: 100%
- mortality at 10000 µg/mL [4]: 100%
- mortality at 0.1 µg/mL [5]: 6.9%
- mortality at 1 µg/mL [5]: 12.6%
- mortality at 10 µg/mL [5]: 11.3%
- mortality at 100 µg/mL [5]: 47.3%
- mortality at 300 µg/mL [5]: 92.2%
- mortality at 1000 µg/mL [5]: 98.5%
- mortality at 10000 µg/mL [5]: 100%
